pEC50: −log10 of the molar value.

The target in the experiment is human FXR (NR1H4) (Homo sapiens (Human), UniProt Q96RI1). The experiment can be described thus: Human FXR (NR1H4) Assay (Gal4 promoter driven luciferase reporter, Indigo Bioscience kit).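 For Efficacy (%): 100% equals the efficacy of CDCA; efficacy normalized to CDCA set as 100%.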 Conditions: for pEC50: Human FXR (NR1H4) Assay, potency ranges; for Emax: read-out: Efficacy (%). Type of experiment: cell-based. The method, boiled down:
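CHO reporter cells expressing human FXR with an FXR-responsive luciferase reporter, treated with compound doses at 0.2% DMSO. Incubation lasted 22 h at 37 °C before luciferase detection reagent was added. Luminescence was then read.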
In general terms: A reporter such as luciferase makes a cellular process visible.

human FXR (NR1H4), sequence (Q96RI1 whole entry, the tested form may be a part): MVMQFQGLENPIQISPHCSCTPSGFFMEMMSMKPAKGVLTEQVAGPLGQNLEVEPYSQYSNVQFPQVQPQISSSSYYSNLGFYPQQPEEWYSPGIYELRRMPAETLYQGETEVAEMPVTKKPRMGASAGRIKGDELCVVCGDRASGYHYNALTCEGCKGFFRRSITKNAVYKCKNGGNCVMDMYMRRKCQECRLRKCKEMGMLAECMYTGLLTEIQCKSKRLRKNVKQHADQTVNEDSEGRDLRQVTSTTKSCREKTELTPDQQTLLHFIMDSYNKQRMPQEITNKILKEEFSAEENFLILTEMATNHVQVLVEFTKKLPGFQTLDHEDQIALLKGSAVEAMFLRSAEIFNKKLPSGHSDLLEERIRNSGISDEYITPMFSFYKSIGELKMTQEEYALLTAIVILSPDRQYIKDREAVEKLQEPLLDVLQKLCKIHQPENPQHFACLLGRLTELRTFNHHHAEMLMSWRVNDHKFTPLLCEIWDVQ

For orientation: pEC50 means the negative decadic logarithm of the EC50, by convention in mol/L. As for `CC[C@H]1[C@@H](O)[C@@H]2[C@H](CC[C@]3(C)[C@@H]([C@H](C)COC(=O)NS(=O)(=O)c4ccc(C(C)(C)C)s4)CC[C@@H]23)[C@@]2(C)CC[C@@H](O)C[C@@H]12` [Example 44-j], the pEC50 was over 7.00 and the Emax is 170%.
Consider `CC[C@H]1[C@@H](O)[C@@H]2[C@H](CC[C@]3(C)[C@@H]([C@H](C)COC(=O)NS(=O)(=O)c4ccc(-n5cnnn5)cc4)CC[C@@H]23)[C@@]2(C)CC[C@@H](O)C[C@@H]12` [Example 44-e], for which the pEC50 was 6.00 to 7.00 and the Emax worked out at 204%.
For the compound `CC[C@H]1[C@@H](O)[C@@H]2[C@H](CC[C@]3(C)[C@@H]([C@H](C)CCOC(=O)NC(C)C)CC[C@@H]23)[C@@]2(C)CC[C@@H](O)C[C@@H]12` [Example 136], the pEC50 was 6.00 to 7.00 and the Emax stood at 185%.
The like results for `CC[C@H]1[C@@H](O)[C@@H]2[C@H](CC[C@]3(C)[C@@H]([C@H](C)CCOC(=O)N4CCC(CO)(CCl)CC4)CC[C@@H]23)[C@@]2(C)CC[C@@H](O)C[C@@H]12` [Example 183] were, in that order, over 7.00 and 451%.
The like results for `CC[C@H]1[C@@H](O)[C@@H]2[C@H](CC[C@]3(C)[C@@H]([C@H](C)CCOC(=O)NC4CCCC4)CC[C@@H]23)[C@@]2(C)CC[C@@H](O)C[C@@H]12` [Example 134] were, in that order, 6.00 to 7.00 and 267%.
The like results for `CCOC(=O)CNC(=O)OCC[C@@H](C)[C@H]1CC[C@H]2[C@@H]3[C@H](O)[C@H](CC)[C@@H]4C[C@H](O)CC[C@]4(C)[C@H]3CC[C@]12C` [Example 156] were, in that order, 6.00 to 7.00 and 193%.
For `CC[C@H]1[C@@H](O)[C@@H]2[C@H](CC[C@]3(C)[C@@H]([C@H](C)CCOC(=O)NS(=O)(=O)c4ccc5c(c4)OCO5)CC[C@@H]23)[C@@]2(C)CC[C@@H](O)C[C@@H]12` [Example 93], the negative-log EC50 (pEC50) is over 7.00 and the Emax was determined as 288%.
The like results for `CC[C@H]1[C@@H](O)[C@@H]2[C@H](CC[C@]3(C)[C@@H]([C@H](C)COC(=O)NC4CCCCC4)CC[C@@H]23)[C@@]2(C)CC[C@@H](O)C[C@@H]12` [Example 199] were, in that order, 5.00 to 6.00 and 14%.
In the same order, the values of `CC[C@H]1[C@@H](O)[C@@H]2[C@H](CC[C@]3(C)[C@@H]([C@H](C)CCOC(=O)NS(=O)(=O)c4cccnc4)CC[C@@H]23)[C@@]2(C)CC[C@@H](O)C[C@@H]12` [Example 95] are 5.00 to 6.00 and 420%.
In the case of `CC[C@H]1[C@@H](O)[C@@H]2[C@H](CC[C@]3(C)[C@@H]([C@H](C)CCOC(=O)N4CCC(O)CC4)CC[C@@H]23)[C@@]2(C)CC[C@@H](O)C[C@@H]12` [Example 169], the pEC50 was 6.00 to 7.00 and the Emax was 257%.
In the same order, the values of `CC[C@H]1[C@@H](O)[C@@H]2[C@H](CC[C@]3(C)[C@@H]([C@H](C)CCOC(=O)N4CCC(N5CCCCC5)CC4)CC[C@@H]23)[C@@]2(C)CC[C@@H](O)C[C@@H]12` [Example 178] are 6.00 to 7.00 and 196%.
In the same order, the values of `CC[C@H]1[C@@H](O)[C@@H]2[C@H](CC[C@]3(C)[C@@H]([C@H](C)CCOC(=O)N4CCCS4(=O)=O)CC[C@@H]23)[C@@]2(C)CC[C@@H](O)C[C@@H]12` [Example 74] are 6.00 to 7.00 and 358%.
The like results for `CC[C@H]1[C@@H](O)[C@@H]2[C@H](CC[C@]3(C)[C@@H]([C@H](C)CCOC(=O)NS(=O)(=O)c4ccc(OCC(F)(F)F)cc4)CC[C@@H]23)[C@@]2(C)CC[C@@H](O)C[C@@H]12` [Example 101] were, in that order, 6.00 to 7.00 and 289%.
With `CC[C@H]1[C@@H](O)[C@@H]2[C@H](CC[C@]3(C)[C@@H]([C@H](C)CCOC(=O)NS(=O)(=O)c4nccs4)CC[C@@H]23)[C@@]2(C)CC[C@@H](O)C[C@@H]12` [Example 104-c], the pEC50 is 5.00 to 6.00 and the Emax came to 34%.
The like results for `CC[C@H]1[C@@H](O)[C@@H]2[C@H](CC[C@]3(C)[C@@H]([C@H](C)CCCOC(=O)NC4CC4)CC[C@@H]23)[C@@]2(C)CC[C@@H](O)C[C@@H]12` [Example 122] were, in that order, 6.00 to 7.00 and 204%.
With `CC[C@H]1[C@@H](O)[C@@H]2[C@H](CC[C@]3(C)[C@@H]([C@H](C)CCOC(=O)N4CCC(C)(CO)CC4)CC[C@@H]23)[C@@]2(C)CC[C@@H](O)C[C@@H]12` [Example 213], the pEC50 was over 7.00 and the Emax is 460%.
As for `CC[C@H]1[C@@H](O)[C@@H]2[C@H](CC[C@]3(C)[C@@H]([C@H](C)COC(=O)NS(=O)(=O)c4ccc(N5CCC5)nc4)CC[C@@H]23)[C@@]2(C)CC[C@@H](O)C[C@@H]12` [Example 44-c], the negative-log EC50 (pEC50) is over 7.00 and the Emax stood at 183%.
In the same order, the values of `CC[C@H]1[C@@H](O)[C@@H]2[C@H](CC[C@]3(C)[C@@H]([C@H](C)CCCOC(=O)N(C)C)CC[C@@H]23)[C@@]2(C)CC[C@@H](O)C[C@@H]12` [Example 128] are 5.00 to 6.00 and 138%.
With `CC[C@H]1[C@@H](O)[C@@H]2[C@H](CC[C@]3(C)[C@@H]([C@H](C)COC(=O)NS(=O)(=O)c4ccc5ncccc5c4)CC[C@@H]23)[C@@]2(C)CC[C@@H](O)C[C@@H]12` [Example 23], the pEC50 was over 7.00 and the Emax was found to be 182%.
On to `CC[C@H]1[C@@H](O)[C@@H]2[C@H](CC[C@]3(C)[C@@H]([C@H](C)CCCOC(=O)NS(=O)(=O)C(C)C)CC[C@@H]23)[C@@]2(C)CC[C@@H](O)C[C@@H]12` [Example 114], for which the pEC50 is 6.00 to 7.00 and the Emax came out at 345%.
`CC[C@H]1[C@@H](O)[C@@H]2[C@H](CC[C@]3(C)[C@@H]([C@H](C)CCOC(=O)N4CCOCC4)CC[C@@H]23)[C@@]2(C)CC[C@@H](O)C[C@@H]12` [Example 160]: the pEC50 was 6.00 to 7.00 and the Emax was determined as 142%.
The like results for `CC[C@H]1[C@@H](O)[C@@H]2[C@H](CC[C@]3(C)[C@@H]([C@H](C)CCOC(=O)NCCCN4CCOCC4)CC[C@@H]23)[C@@]2(C)CC[C@@H](O)C[C@@H]12` [Example 152] were, in that order, 6.00 to 7.00 and 276%.
As for `CC[C@H]1[C@@H](O)[C@@H]2[C@H](CC[C@]3(C)[C@@H]([C@H](C)CCOC(=O)NCCc4c[nH]c5ccccc45)CC[C@@H]23)[C@@]2(C)CC[C@@H](O)C[C@@H]12` [Example 141], the pEC50 was 6.00 to 7.00 and the Emax amounted to 293%.
The like results for `CC[C@H]1[C@@H](O)[C@@H]2[C@H](CC[C@]3(C)[C@@H]([C@H](C)COC(=O)NS(=O)(=O)c4ccc(N5CCC(C)(C)CC5)cc4)CC[C@@H]23)[C@@]2(C)CC[C@@H](O)C[C@@H]12` [Example 20] were, in that order, over 7.00 and 203%.

The record behind these values is patent publication US10457703B2, “Bile acid derivatives as FXR/TGR5 agonists and methods of use thereof” (ENANTA PHARMACEUTICALS, INC., priority 2015, dated 2019).
